Source: patent publication US7189746B2, “Methods for promoting wound healing” (GliaMed, Inc., priority 2002, dated 2007)
pKd: −log10 of the molar value. “Also recorded” adds a separate entry of the source.

Key:
facial nerve = assay: Whisker movement after unilateral facial nerve compression; format: in vivo; conditions: rats, versus control
epidermis = assay: Epidermal thickness after full-thickness skin biopsy and topical treatment; format: in vivo, mice; conditions: topical daily for 8 days in DMSO-based vehicle, rebiopsy, H&E
Description: FIG. 4 illustrates that topical treatment with GM-284 increases epidermal thickness in vivo. Eight days after full-thickness skin biopsies and daily treatment with vehicle, FK506, or GM-284, the original biopsy sites were rebiopsied and stained with hemotoxylin and eosin.
To examine this possibility, 5-mm, full-skin thickness biopsies were taken from the hindquarters of both male and female ICR retired breeders. The wounds were treated daily, for 8 days, with topical administration of either the DMSO-based vehicle, or FK506 or GM-284 in the vehicle. Thereafter, the original biopsy site was rebiopsied. […] In contrast, the epidermis of the GM-284-treated animals was much thicker, and appeared to be much more cellular, than the epidermis of animals under the other two conditions (FIG. 4, panel c).

neuregulin-α = assay: Neuregulin-α expression in keratinocytes of unwounded skin in situ; format: in vivo
From the text: FIG. 8 illustrates that GM-284 alters neuregulin gene expression. […] As expected, unwounded, vehicle-treated keratinocytes strongly express neuregulin-α (top panel).
As expected, unwounded, vehicle-treated keratinocytes strongly expressed neuregulin-α (FIG. 8, top panel).

[1] = system: human-foreskin keratinocytes; assay: Proliferation of cultured human-foreskin keratinocytes; format: cell-based
Description: Human keratinocytes were thawed, then either grown in the presence of increasing concentrations of GM-284, or grown in 5 μM FeSO4 as a positive control.
As detailed above, keratinocyte proliferation is influenced by a number of factors, including innervation (Hsieh and Lin, Modulation of keratinocyte proliferation by skin innervation. J. Invest. Dermatol., 113:579–86, 1999) and growth-factor treatment (Castagnino et al., Neu differentiation factor/heregulin induction by hepatocyte and keratinocyte growth factors. Oncogene, 19:640–48, 2000; and reviewed by Werner and Smola, Paracrine regulation of keratinocyte proliferation and differentiation. Trends Cell Biol., 11: 143–46, 2001). Thus, by culturing human-foreskin keratinocytes with increasing concentrations of GM-284, the inventor investigated the possibility that GM-284 was able to influence keratinocyte growth. […] This type of drug-dependent inhibition is consistent with the inventor's previous observation that a higher concentration of GM-284 blocks gene expression that is induced at a lower drug concentration (data not shown).

[2] = system: nerve fibers of injured skin; assay: Reinnervation and remyelination of healing skin (MBP and neuron-specific β-tubulin staining); format: in vivo, mouse; conditions: 8 days of treatment after biopsy
From the text: FIG. 6 illustrates that GM-284 induces rapid reinnervation of injured skin. (A) The inventor examined innervation of surgically damaged skin (biopsy) following 8 days of treatment with either GM-284 or vehicle. The skin sections were stained with an antibody that recognizes myelin basic protein (MBP). […] In contrast, healing skin which had been treated with vehicle alone still had no myelinated fibers, nor did the Langerhans cells appear to have any organization relative to the epidermis (right panel). (B) Unmyelinated fibers also innervate the skin, where the fibers extend into the epidermis. […] No such fibers were found in the vehicle-treated controls.
As shown above, GM-284 induces rapid healing of wounds; it does so, in part, by influencing the proliferation of cells within the dermis and epidermis. In addition, this compound has profound effects on the regeneration of peripheral nerves. The inventor has previously shown that, following crushing-nerve injury, GM-284 enhances nerve regeneration, acting on both the axon and the Schwann cell (data not shown). To investigate whether GM-284 also enhances sensory-nerve regeneration into skin following wounding, the inventor examined innervation of skin biopsies after 8 days of treatment with either GM-284 or vehicle. […]

5-mm skin biopsies = assay: Closure of 5-mm skin biopsy wounds under daily topical treatment; format: in vivo, mice
Description: The foregoing results also raised the possibility that GM-284 might show similar effects if administered topically, directly to the surgical site. To investigate this possibility, 10 retired breeders—5 male mice and 5 female mice—were prepared for surgery, and were subjected to 5-mm skin biopsies using a disposable biopsy punch. After achieving hemostasis, the wounds were treated immediately with topical application of either GM-284 or vehicle, or received no treatment at all. The treatment was repeated daily.
During the experimental period, the wounds were photographed daily, and the photographs were scanned for […]. The open area of each wound was quantified using an image-analysis program, NIH Image.

surgical wounds = assay: Healing of surgical wounds under daily gavage (systemic treatment); format: in vivo, mice
From the text: During these studies, the inventor serendipitously observed that the surgical wounds of animals treated systemically with GM-284 appeared dramatically different from those of either vehicle- or FK506-treated mice. […] Given the biochemical properties of GM-284, and the clinical uses of FK506 as a topical medication, the inventor investigated the ability of GM-284 to act as a healing accelerant when applied topically to full-thickness skin biopsies in mice.
These studies required surgical exposure of the right lower quadrant of all study animals. Following exposure of the sciatic nerve from the sciatic notch to the knee, and manipulation of the nerve, the muscle and overlaying skin were closed with suture material. Each animal was subsequently treated with a daily gavage of either GM-284 (5 mg/kg), FK506 (5 mg/kg), or methylcellulose vehicle alone.

peripheral nerves = assay: Peripheral nerve regeneration after mechanical transection; format: in vivo; conditions: mechanical transection of peripheral nerves; earlier studies of the inventor
epidermis of intact skin = assay: Topical treatment of intact shaved skin, with recovery period; format: in vivo
From the text: Either GM-284 or vehicle was applied to the dorsal skin on both sides of the animals, daily for 2 weeks. At that time, a 5-mm biopsy was taken from only one side, and all treatment was withheld. After an additional 2-week recovery period, a 5-mm biopsy was taken from the contralateral, intact side. […] 20×magnification
In order to test these effects, the inventor shaved the dorsal fur from over the hindquarters, bilaterally, and tattooed ˜5-mm circles on the skin. Either GM-284 or vehicle was applied daily, to both sides of the animals, for 2 weeks. After that time, a 5-mm biopsy was taken from only one side of each animal, and all treatment was withheld. After an additional 2-week “recovery period”, a 5-mm biopsy was taken from the intact side of each animal.

recombinant FKBP52 = biological target: T1, recombinant FKBP52 (Homo sapiens, UniProt Q02790); assay: Binding affinity for recombinant FKBP52 by solution-phase tryptophan fluorescence (QTFS); conditions: read-out: disassociation constant (kd), binding affinity for recombinant FKBP52
T1 sequence (Q02790 1-459): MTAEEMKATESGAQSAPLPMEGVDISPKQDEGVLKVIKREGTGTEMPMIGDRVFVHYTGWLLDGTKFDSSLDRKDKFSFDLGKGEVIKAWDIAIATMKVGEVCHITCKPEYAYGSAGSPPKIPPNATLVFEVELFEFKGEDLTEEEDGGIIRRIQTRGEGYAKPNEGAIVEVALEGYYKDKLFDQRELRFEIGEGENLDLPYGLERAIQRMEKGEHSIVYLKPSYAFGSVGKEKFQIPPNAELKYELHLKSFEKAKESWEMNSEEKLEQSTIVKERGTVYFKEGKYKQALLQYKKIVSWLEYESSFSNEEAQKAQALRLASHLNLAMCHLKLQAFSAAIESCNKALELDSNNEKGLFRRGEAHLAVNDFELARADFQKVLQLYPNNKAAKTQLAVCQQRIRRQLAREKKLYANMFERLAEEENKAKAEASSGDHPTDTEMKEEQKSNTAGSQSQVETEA
From the text: Accordingly, in one embodiment of the present invention, the immunophilin ligand is FK506 or an FK506 analogue or derivative. As used herein, an “FK506 derivative” is a chemical substance derived from FK506, either directly or by modification, truncation, or partial substitution. FK506 and its analogues and derivatives may be produced synthetically. The FK506 derivative for use in the present invention may be nonimmunosuppressive. In a preferred embodiment of the present invention, the nonimmunosuppressive FK506 derivative is GM-284. This novel compound is a small molecule that effects transcriptional change in Schwann cells, and promotes wound healing and regeneration of epithelial tissue and nervous tissue, as described below. […] The structure of GM-284 is depicted in FIG. 9.

[3] = system: hair follicles and sebaceous glands; assay: Histology of adenexal structures and sebaceous cell volume after skin biopsy and topical treatment; format: in vivo, mice; conditions: topical daily, 8 days
Description: (A) Eight days following full-thickness skin biopsies and daily treatment with either vehicle or a 1 μM solution of GM-284, the original biopsy sites were rebiopsied and stained with hemotoxylin and eosin. […] Micrographs from the two treatment groups were scanned, and the volume of sebaceous cells was measured in voxels (n=>300 cells per treatment group). The resulting data were binned by 3000-voxel increments.
Using the topical-application-following-skin-biopsy paradigm detailed above, the lateral aspects of the original lesions were rebiopsied 8 days after the original lesions. The tissues were immersion-fixed, dehydrated through step gradients of alcohols, stained with hemotoxylin and eosin, and mounted for microscopic analysis, all following standard protocols. It is known that skin wounds in rodents heal inwards, from the perimeter, converging at a central point (Cohen, Stress and wound healing. Acta Anat. (Basel), 103:134–41, 1979). Therefore, the lateral edges of the original lesions were selected for analysis because these areas of tissue had the greatest opportunity to regenerate under the experimental conditions.
The volumes of the cells of the sebaceous glands were determined by scanning micrographs taken from animals treated with either GM-284 or vehicle for 8 days, and measuring cell size with the NIH Image program. […] There was an absence of smaller sebaceous cells in the GM-284 treatment group, and an absence of larger cells in the vehicle-treated group. […] Thus, given the cellular expansion in all three of these dermal compartments, it is likely that GM-284 acts at the level of the common stem cell.

SMILES: CCC(C)(C)C(=O)C(=O)N1CCC[C@H]1c1nnc([C@@H]2CCCN2C(=O)C(=O)C(C)(C)CC)o1 [GM-284]
- restoration of whisker movement (facial nerve): more rapidly restore whisker movement compared to control
- epidermal thickness versus vehicle (FIG. 4) (epidermis): marked increase in epidermal thickness; also recorded: much thicker
- keratinocyte neuregulin-α expression (FIG. 8) (neuregulin-α; 2 weeks of topical treatment, unwounded skin): completely downregulated neuregulin-α expression
- keratinocyte neuregulin-α expression after recovery (neuregulin-α; skin allowed to recover for 2 weeks, data not shown): keratinocyte expression of neuregulin-α was restored
- increase in rate of keratinocyte proliferation ([1]; 1 μM, after 14 days of treatment): more than 150%
- proliferative index of keratinocytes (FIG. 3) ([1]; 1 μM, after first passage and reseeding): doubling of the proliferative index
- keratinocyte growth rate at 10 μM compared with 1 μM ([1]; 10 μM): completely ablated the pro-proliferative activity
- regeneration of myelinated (MBP-positive) fibers in injured skin (FIG. 6A) [2]: regained its pre-injury histology, with new, myelinated fibers running parallel to the epidermis
- regeneration of unmyelinated fibers into the epidermis (FIG. 6B) [2]: promotes regeneration of naked axons into the epidermis
- granulation of wound edges (5-mm skin biopsies; topical daily, D3 and D9): better granulated than the controls
- closure rate, open wound area by NIH Image (FIG. 2) (5-mm skin biopsies; topical daily, day 5): large difference in the closure rates
- open wound size versus control groups, NIH Image (FIG. 2) (5-mm skin biopsies; topical daily, day 9): approximately one-third the size of those of the control groups
- open wound size versus control groups, NIH Image (FIG. 2) (5-mm skin biopsies; topical daily, day 9, listed as GM284): approximately as completely healed as that of the two control groups
- rate of wound closure, open wound area by NIH Image (5-mm skin biopsies; topical daily, third treatment day): closed approximately twice as fast as the control groups
- wound closure versus control groups (FIG. 1) (5-mm skin biopsies; topical, once daily, day 3): showed improvement by 3 days; also recorded: significantly more closed than the control groups
- wound closure (FIG. 1) (5-mm skin biopsies; topical, once daily, day 9): virtually closed by the ninth day
- appearance and closure of surgical wounds (surgical wounds; daily gavage 5 mg/kg, skin and muscle entered, blinded observer): less erythemia and more rapid closure
- rate of wound healing versus controls (surgical wounds; mice treated systemically, controls vehicle or FK506): healed at approximately twice the rate as the controls
- healing of surgical wounds, only the skin entered (surgical wounds; muscle and overlying fascia left intact): same improved healing characteristics
- axonal regeneration and myelination after nerve transection (peripheral nerves): enhances axonal regeneration and induces hypermyelination
- epidermal hypertrophy after recovery period (FIG. 7, lower) (epidermis of intact skin; 2 weeks treatment, then 2 weeks without treatment): completely reversed
- epidermal thickness of intact skin (FIG. 7, top) (epidermis of intact skin; topical daily for 2 weeks): resulted in epidermal hypertrophy
- pKd (recombinant FKBP52): 6.86
- number of hair follicles or sebaceous glands ([3]; 1 μM solution): no net increase in the number of hair follicles
- hair follicle size and cellularity (FIG. 5A) ([3]; 1 μM solution, versus vehicle): large increase in the width and cellularity of the basal aspects of the hair follicles; also recorded: overall increase in hair-follicle size
- sebaceous gland size and cell number (FIG. 5A) ([3]; 1 μM solution, versus vehicle): much rounder, larger, and fuller than those of the controls; also recorded: increase in the size of sebaceous glands
- sebaceous cell volume, binned by 3000-voxel increments (FIG. 5B) ([3]; >300 cells per group, versus vehicle): marked shift to the right; also recorded: absence of cells smaller than 3000 voxels
